Consider one molecule from ChEMBL document CHEMBL1201862, “PubChem BioAssay data set” (2004).

Calls of active or inactive are those of the source. For most assays here, no stated cut-off is given here; in the data, active = IC50 of 10 µM or less and inactive = more.

Type in all cases: functional
Assay [1] deals with Delta-type opioid receptor (Homo sapiens, UniProt P41143). Description: SAR Analysis of Antagonists of the DOR Receptor using an Image-Based Assay - Set 3. [Related pubchem assays (depositor defined):AID1777, AID1785].
In assay [2] the target is T1, Kappa-type opioid receptor (Homo sapiens, UniProt P41145). Description: SAR analysis of small molecule antagonists of the kappa opioid receptor via a luminescent beta-arrestin assay - Set 3. [Related pubchem assays (depositor defined):AID1777, AID1778, AID1785, AID1786, AID1966, AID2133, AID2136, AID2285, AID2495].
For assay [3], the target named is T1, Kappa-type opioid receptor. Description: SAR analysis of Antagonists of the Kappa Opioid Receptor (KOR) using an Image-Based Assay - Set 3. [Related pubchem assays (depositor defined):AID1777, AID1785].
For assay [4], the target named is Mu-type opioid receptor (Homo sapiens, UniProt P35372). Description: SAR Analysis of Antagonists of the MOR Receptor using an Image-Based Assay - Set 3. [Related pubchem assays (depositor defined):AID1777, AID1785, AID1786, AID1966, AID2133, AID2136, AID2284, AID2285, AID2420].
Mu-type opioid receptor, sequence (P35372 whole entry): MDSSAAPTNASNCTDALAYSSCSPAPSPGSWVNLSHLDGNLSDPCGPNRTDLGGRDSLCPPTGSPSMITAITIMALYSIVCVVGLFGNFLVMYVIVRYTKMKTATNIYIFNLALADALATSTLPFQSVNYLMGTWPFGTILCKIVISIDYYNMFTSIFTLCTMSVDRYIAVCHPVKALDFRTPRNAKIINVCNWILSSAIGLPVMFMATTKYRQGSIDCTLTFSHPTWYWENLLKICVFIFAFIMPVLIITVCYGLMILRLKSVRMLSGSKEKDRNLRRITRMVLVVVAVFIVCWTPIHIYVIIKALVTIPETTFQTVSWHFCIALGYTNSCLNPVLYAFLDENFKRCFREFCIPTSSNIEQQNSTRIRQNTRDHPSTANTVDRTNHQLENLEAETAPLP

T1 sequence (P41145 whole entry): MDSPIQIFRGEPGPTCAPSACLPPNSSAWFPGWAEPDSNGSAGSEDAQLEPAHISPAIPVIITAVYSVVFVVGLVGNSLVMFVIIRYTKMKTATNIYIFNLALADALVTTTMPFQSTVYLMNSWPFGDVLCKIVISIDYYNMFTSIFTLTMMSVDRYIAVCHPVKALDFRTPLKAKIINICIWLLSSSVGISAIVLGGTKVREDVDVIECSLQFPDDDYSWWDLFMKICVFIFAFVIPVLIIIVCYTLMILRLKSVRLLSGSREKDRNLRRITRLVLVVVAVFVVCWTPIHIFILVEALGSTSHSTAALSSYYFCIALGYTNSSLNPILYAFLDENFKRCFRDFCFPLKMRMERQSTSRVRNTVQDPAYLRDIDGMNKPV
Delta-type opioid receptor, sequence (P41143 whole entry): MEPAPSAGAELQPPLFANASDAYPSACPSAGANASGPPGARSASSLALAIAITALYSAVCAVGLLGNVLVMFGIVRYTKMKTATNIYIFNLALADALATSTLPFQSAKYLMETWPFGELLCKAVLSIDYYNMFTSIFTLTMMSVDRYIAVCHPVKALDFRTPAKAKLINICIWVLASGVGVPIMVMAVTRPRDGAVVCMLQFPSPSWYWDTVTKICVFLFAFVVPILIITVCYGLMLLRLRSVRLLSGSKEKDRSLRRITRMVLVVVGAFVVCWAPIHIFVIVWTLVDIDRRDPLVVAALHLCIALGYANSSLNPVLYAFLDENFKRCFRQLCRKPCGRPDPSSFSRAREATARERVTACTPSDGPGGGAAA

The IC50 is the point on the concentration scale where inhibition reaches its midpoint. As to `CCc1ccc(S(=O)(=O)NCc2ccc(C(=O)NCCN(C)[C@@H](C)c3ccccc3)cc2)cc1`, the IC50 is > 32 µM (inactive) in assay [1], 3.75 µM (active) in assay [2], 0.749 µM (active) in assay [3] and > 32 µM (inactive) in assay [4].
